From US11458141B2, “Aryl hydrocarbon receptor (AhR) agonists for the prevention and treatment of inflammatory disorders” (The Johns Hopkins University, priority 2017, dated 2022) come the findings set out here.

“Also recorded” adds a separate entry of the source.

For experiment [1], the system named is mice with NEC. The experiment can be described thus: Experimental NEC model in 7-day-old mice (formula gavage, hypoxia, NEC stool bacteria), NEC severity. The class given is in vivo, mouse. As to conditions: for NEC severity: I3C oral 50 mg/kg/day, 50 mg/kg/day. The text has this:
The development of NEC requires TLR4 signaling in the intestinal epithelium. In seeking to understand the biological underpinnings of NEC, it has been discovered that activation within the intestinal epithelium of the receptor for gram-negative bacteria, namely toll-like receptor 4 (TLR4), is critical for the development of NEC. […] Further, mice that lack TLR4 in the intestinal epithelium (herein referred to as TLR4^ΔIEC mice) or globally (TLR4^−/−) were generated and then subjected to the well validated NEC model at 7 days of age. Mice were gavaged with formula, i.e., Similac Advance infant formula (Abbott Nutrition):Esbilac canince milk replacer (PetAb) in a 2:1 ratio at 50 μL/g every 3 hours, 10 mins hypoxia (5% O2 95% N2 in a Billups-Rothenberg chamber) twice daily for four days, and oral gavage of bacteria (1×10^5 cfu/mL) obtained from the stool of a patient with severe NEC. This experimental protocol induces patchy small intestinal necrosis, intestinal edema, and mucosal disruption very similar to human NEC in wild-type mice (FIG. 10), while mice lacking TLR4 in the intestinal epithelium (TLR4^ΔIEC mice) or globally (TLR4^−/−) were protected from NEC development. Mechanistically, TLR4 activation in the intestinal epithelium leads to an increase in apoptosis and a reduction in proliferation within the intestinal epithelium which leads to mucosal injury (FIG. 11). […]
Another aspect of the presently disclosed subject matter was to identify novel agonists of AHR which could be orally administered to prevent or treat experimental NEC, and which have greater potency and pharmacokinetic properties than the dietary-derived ligand I3C. To do so, an AHR-luciferase screen in intestinal epithelial cells (IEC-6 cells) was developed, then compound libraries were screened, and validation in vitro and in vivo using readouts of AHR activation by measuring the expression of Cyp1 was performed. […]

Experiment [2] has as its system AHR signaling pathway. As to the kind of experiment: Maternal I3C administration, Cypla1 mRNA in ileum of offspring with NEC. Conditions: mums 25 mg/kg oral gavage E7 to P7. The class given is in vivo, mouse. As for the experimental part:
The pups whose mums received 25 mg/kg indole-3-carbinol (13C) by oral gavage starting from the embryonic age 7 (E7) of the fetus until the postnatal day 7 (P7) were included in maternal […]-rich group, while the pups whose mums received vehicle were included in maternal […]-free group. Necrotizing enterocolitis (NEC) was induced in 7-day-old mouse pups by gavage feeding and hypoxia exposure for 4 days. The ileum was harvested at the end of experiment and the mRNA expression of target genes was analyzed by qPCR. Referring now to FIG. 7, the mRNA expression of Cypla1, the down-stream gene of AHR signaling, was quantified in the ileum of experimental NEC models. Data are represented as mean±SEM; *p<0.05 between indicated groups; each dot represents an individual mouse.

Experiment [3] deals with mice with NEC. As to the kind of experiment: I3C to the pregnant mother (50 mg/kg/day), AHR activation and NEC in the pup. It counts as in vivo, mouse. The source says:
The administration of the AHR ligand I3C to the pregnant mother prevents NEC in the newborn mouse (FIG. 16). […] Another aspect of the presently disclosed subject matter is to develop a diet rich in AHR ligands that could be administered to the mother, and protect against the development of NEC. […]

For experiment [4], the system named is AHR activation and TLR4 signaling in enteroids. As to the kind of experiment: Mouse enteroids: Cypla1 induction and TLR4 signaling. It counts as cell-based. As to conditions: I3C 200 μM. The source says:
AHR activation by I3C or breast milk limits TLR4 signaling in the intestinal epithelium (FIG. 14). In seeking to investigate how AHR signaling attenuates NEC severity, whether AHR activation could limit the degree of TLR4 signaling in the gut was investigated. To do so, enteroids were derived from wild-type mice, which are intestinal cultures containing all cell lineages derived from intestinal crypts, as have been described.

Where [5] appears, read: I3C 50 mg/kg/d to pregnant mice.

In the case of `OCc1c[nH]c2ccccc12` [I3C, indole-3-carbinol], the NEC severity result in experiment [1] (AHR-/- mice) was “but not AHR^−/− mice; also recorded: does not protect”. Moreover, the “expression of proinflammatory gene IL-1” value in experiment [1] (mice afflicted with NEC) is given as “reduced the expression of proinflammatory gene IL-1”. Also, in experiment [1] (wild-type mice), the NEC severity entry was “reduces NEC severity; also recorded: limits NEC severity”. The “mRNA expression of Cypla1 (AHR signaling) in offspring” value in experiment [2] was “significantly activated the AHR signaling pathway”. Moreover, in experiment [3] (setting [5]), the “NEC severity in the pup” value is on record as “significantly reduced NEC severity; also recorded: prevents NEC in the newborn mouse pup”, the “cytokine (IL-6) induction in the pup” value was “reduced cytokine induction; also recorded: decreased IL-6 expression”, the “enterocyte apoptosis in the pup” value is given as “reduced enterocyte apoptosis” and the “mucosal injury / histology in the pup” value is recorded as “reduced; also recorded: improved histology”. Besides, the “proliferation in the pup intestinal mucosa” value in experiment [3] (setting [5]) was “improved proliferation”. Further, the “Cypla1 expression in the intestine (AHR activation in utero)” value in experiment [3] (I3C oral 50 mg/kg/day to the pregnant mother, 50 mg/kg/day) was “induced the downstream gene Cypla1 in the pup intestine; also recorded: leads to expression of Cypla1 in the intestinal epithelium of both the mother and the fetus”. Moreover, the Cypla1 induction entry in experiment [4] (enteroids from wild-type mice) is “significantly induced the downstream molecule Cypla1; also recorded: induces Cypla1”. In experiment [4] (enteroids, conditioned media from NEC stool bacteria), the “TLR4 signaling (cytokine/TNF induction)” value is listed as “reduced TLR4 signaling; also recorded: reduces TNF”.
